According to PubChem BioAssay AID1259407 (Chemical Carcinogenesis Research Information System (CCRIS), 2018):
The source made the active and inactive calls. How the calls were made is not given here.

System: CCRIS mutagenicity, Ames/micronucleus/aberration tests
Assay: CCRIS mutagenicity studies
Settings: Test System: AMES SALMONELLA TYPHIMURIUM, Method: PREINCUBATION
[1] = Strain/Indicator: TA98, Metabolic Activation: NONE
[2] = Strain/Indicator: TA100, Metabolic Activation: NONE
[3] = Strain/Indicator: TA97, Metabolic Activation: HAMSTER, LIVER, S-9, AROCLOR 1254 (10%)
[4] = Strain/Indicator: TA97, Metabolic Activation: NONE
[5] = Strain/Indicator: TA97, Metabolic Activation: RAT, LIVER, S-9, AROCLOR 1254 (10%)
[6] = Strain/Indicator: TA98, Metabolic Activation: HAMSTER, LIVER, S-9, AROCLOR 1254 (10%)
[7] = Strain/Indicator: TA98, Metabolic Activation: RAT, LIVER, S-9, AROCLOR 1254 (10%)
[8] = Strain/Indicator: TA100, Metabolic Activation: HAMSTER, LIVER, S-9, AROCLOR 1254 (10%)
[9] = Strain/Indicator: TA100, Metabolic Activation: RAT, LIVER, S-9, AROCLOR 1254 (30%)
[10] = Strain/Indicator: TA1535, Metabolic Activation: HAMSTER, LIVER, S-9, AROCLOR 1254 (10%)
[11] = Strain/Indicator: TA1535, Metabolic Activation: NONE
[12] = Strain/Indicator: TA1535, Metabolic Activation: RAT, LIVER, S-9, AROCLOR 1254 (30%)

SMILES | mutagenic call [1] | mutagenic call [2] | mutagenic call [3] | mutagenic call [4] | mutagenic call [5] | mutagenic call [6] | mutagenic call [7] | mutagenic call [8] | mutagenic call [9] | mutagenic call [10] | mutagenic call [11] | mutagenic call [12] | also measured
c1ccc(Cn2ccnc2)cc1 | inactive; negative | inactive; negative |  |  |  |  |  |  |  |  |  |  | mutagenic call (Strain/Indicator: TA98, Metabolic Activation: RAT, LIVER, S-9, N-BENZYLIMIDAZOLE): inactive; negative; mutagenic call (Strain/Indicator: TA98, Metabolic Activation: RAT, LIVER, S-9): inactive; negative; mutagenic call (Strain/Indicator: TA100, Metabolic Activation: RAT, LIVER, S-9, N-BENZYLIMIDAZOLE): active; positive; mutagenic call (Strain/Indicator: TA100, Metabolic Activation: RAT, LIVER, S-9): active; positive
CCCCCCCCCCCCCCCCCC[N+](C)(C)Cc1ccccc1 | inactive; negative | inactive; negative | inactive; negative | inactive; negative | inactive; negative | inactive; negative | inactive; negative | inactive; negative | inactive; negative | inactive; negative | inactive; negative | inactive; negative | mutagenic call (Strain/Indicator: TA97, Metabolic Activation: HAMSTER, LIVER, S-9, AROCLOR 1254 (30%)): inactive; negative; mutagenic call (Strain/Indicator: TA97, Metabolic Activation: RAT, LIVER, S-9, AROCLOR 1254 (30%)): inactive; negative; mutagenic call (Strain/Indicator: TA98, Metabolic Activation: HAMSTER, LIVER, S-9, AROCLOR 1254 (30%)): inactive; negative; mutagenic call (Strain/Indicator: TA98, Metabolic Activation: RAT, LIVER, S-9, AROCLOR 1254 (30%)): inactive; negative; mutagenic call (Strain/Indicator: TA100, Metabolic Activation: HAMSTER, LIVER, S-9, AROCLOR 1254 (30%)): inactive; negative; mutagenic call (Strain/Indicator: TA100, Metabolic Activation: RAT, LIVER, S-9, AROCLOR 1254 (10%)): inactive; negative; mutagenic call (Strain/Indicator: TA1535, Metabolic Activation: HAMSTER, LIVER, S-9, AROCLOR 1254 (30%)): inactive; negative; mutagenic call (Strain/Indicator: TA1535, Metabolic Activation: RAT, LIVER, S-9, AROCLOR 1254 (10%)): inactive; negative; mutagenic call (Strain/Indicator: TA1537, Metabolic Activation: HAMSTER, LIVER, S-9, AROCLOR 1254 (30%)): inactive; negative; mutagenic call (Strain/Indicator: TA1537, Metabolic Activation: NONE): inactive; negative; mutagenic call (Strain/Indicator: TA1537, Metabolic Activation: RAT, LIVER, S-9, AROCLOR 1254 (30%)): inactive; negative
CCCCC(CC)COCC1CO1 (centres undefined) | inactive; negative | inactive; negative | inactive; negative | inactive; negative | inactive; negative | inactive; negative | inactive; negative | inactive; negative | inactive; negative | inactive; negative | inactive; negative | inactive; negative | mutagenic call (Strain/Indicator: TA100, Metabolic Activation: RAT, LIVER, S-9, AROCLOR 1254 (5 OR 30%)): inactive; negative; mutagenic call (Strain/Indicator: TA1535, Metabolic Activation: RAT, LIVER, S-9, AROCLOR 1254 (5% & 10%)): active; positive; mutagenic call (Strain/Indicator: TA1535, Metabolic Activation: RAT, LIVER, S-9, AROCLOR 1254 (5 OR 10%)): active; positive
